Experimental data published in ChEMBL document CHEMBL1201862, “PubChem BioAssay data set” (2004).
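Test compounds were applied to cells in 96-well plates for 48 hours at 5 doses. GI50 is the concentration that inhibits growth by half.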 The source made the active and inactive calls. No stated cut-off is given here; in the data, active = GI50 up to about 1.1 µM and inactive = higher.

Assays:
Assay in all cases: growth of human tumour cells (NCI), 48 h
A498 = system: A498
ACHN = system: ACHN
BT-549 = system: BT-549
EKVX = system: EKVX
HCT-116 = system: HCT-116
HL-60 = system: HL-60
HOP-92 = system: HOP-92
IGROV-1 = system: IGROV-1
NCI-H226 = system: NCI-H226
OVCAR-3 = system: OVCAR-3
OVCAR-4 = system: OVCAR-4
OVCAR-8 = system: OVCAR-8
RXF 393 = system: RXF 393
SF-268 = system: SF-268
SNB-75 = system: SNB-75
SR = system: SR
SW-620 = system: SW-620
TK-10 = system: TK-10
U-251 = system: U-251
MDA-N = system: MDA-N

Measured: GI50

CCNc1ccc2c(c1)Cc1ccccc1-2
inactive: A498 43.3 µM | ACHN 77.4 µM | BT-549 34.5 µM | EKVX 32.4 µM | HCT-116 > 100 µM | HL-60 37.3 µM | HOP-92 21.2 µM | IGROV-1 37 µM | NCI-H226 54.7 µM | OVCAR-3 29 µM | OVCAR-4 75.3 µM | OVCAR-8 51.5 µM | RXF 393 > 100 µM | SF-268 46.2 µM | SNB-75 > 100 µM | SR 14.5 µM | SW-620 83.6 µM | TK-10 33.1 µM | U-251 44.3 µM

CC(=O)c1cccc(NCn2nnc3ccccc32)c1
inactive: A498 > 100 µM | ACHN > 100 µM | EKVX > 100 µM | HCT-116 > 100 µM | HL-60 61 µM | HOP-92 > 100 µM | IGROV-1 > 100 µM | NCI-H226 > 100 µM | OVCAR-3 > 100 µM | OVCAR-4 > 100 µM | OVCAR-8 > 100 µM | RXF 393 > 100 µM | SF-268 > 100 µM | SNB-75 > 100 µM | SR 79.4 µM | SW-620 > 100 µM | TK-10 > 100 µM | U-251 > 100 µM

COc1cc(OCc2ccc3nc(-c4ccccc4)c(Cl)nc3c2)cc(OC)c1OC
inactive: A498 32.5 µM | ACHN 32.3 µM | EKVX 59.2 µM | HCT-116 76.6 µM | HL-60 24.5 µM | HOP-92 8.71 µM | IGROV-1 69.2 µM | MDA-N > 100 µM | OVCAR-3 > 100 µM | OVCAR-4 > 100 µM | OVCAR-8 > 100 µM | SF-268 > 100 µM | SNB-75 48.4 µM | SR > 100 µM | SW-620 > 100 µM | TK-10 19.4 µM | U-251 16.5 µM

COc1cc(/C=C2\NC(=O)C(Cc3cc(OC)c(OC)c(C)c3OC)N(C(C)=O)C2=O)c(OC)c(C)c1OC (configuration not stated)
inactive: A498 > 100 µM | ACHN > 100 µM | EKVX 43.7 µM | HCT-116 > 100 µM | HL-60 23 µM | HOP-92 29.3 µM | IGROV-1 > 100 µM | NCI-H226 59.2 µM | OVCAR-3 > 100 µM | OVCAR-4 > 100 µM | OVCAR-8 72.8 µM | RXF 393 95.5 µM | SF-268 > 100 µM | SNB-75 > 100 µM | SR > 100 µM | SW-620 > 100 µM | TK-10 > 100 µM | U-251 > 100 µM

COC(=O)C1=C(O)c2cc(OC)c(OC)cc2C(c2ccc(OC)c(OC)c2)C1 (configuration not stated)
inactive: A498 36.3 µM | ACHN 77.3 µM | EKVX > 100 µM | HCT-116 56.4 µM | HL-60 > 100 µM | HOP-92 > 100 µM | IGROV-1 > 100 µM | NCI-H226 > 100 µM | OVCAR-3 > 100 µM | OVCAR-4 > 100 µM | OVCAR-8 93.1 µM | RXF 393 > 100 µM | SF-268 69.3 µM | SNB-75 > 100 µM | SR 38.5 µM | SW-620 54.8 µM | TK-10 > 100 µM | U-251 > 100 µM

CC1(C)O[C@@H](CCl)C[C@@H](C#N)O1
inactive: A498 > 100 µM | ACHN > 100 µM | EKVX > 100 µM | HCT-116 > 100 µM | HL-60 > 100 µM | HOP-92 > 100 µM | IGROV-1 > 100 µM | NCI-H226 > 100 µM | OVCAR-3 > 100 µM | OVCAR-4 > 100 µM | OVCAR-8 > 100 µM | RXF 393 > 100 µM | SF-268 > 100 µM | SNB-75 > 100 µM | SR > 100 µM | SW-620 > 100 µM | TK-10 > 100 µM | U-251 > 100 µM

CC12CC3c4ccccc4CN1C3(c1ccccc1)OC2=O (configuration not stated)
inactive: A498 > 100 µM | ACHN > 100 µM | BT-549 > 100 µM | EKVX > 100 µM | HCT-116 > 100 µM | HL-60 > 100 µM | IGROV-1 > 100 µM | NCI-H226 > 100 µM | OVCAR-4 > 100 µM | OVCAR-8 > 100 µM | RXF 393 > 100 µM | SF-268 > 100 µM | SNB-75 > 100 µM | SW-620 > 100 µM | TK-10 > 100 µM | U-251 > 100 µM

COC(=O)/C=C(/C=C1/C(C#N)=C(N)N(c2ccc(Cl)cc2)C1(C)/C(=C/C(=O)OC)C(=O)OC)C(=O)OC (configuration not stated)
inactive: A498 49.5 µM | ACHN 42.7 µM | EKVX 46.1 µM | HCT-116 28.9 µM | HL-60 15.7 µM | HOP-92 42.3 µM | IGROV-1 27.6 µM | MDA-N 45.1 µM | OVCAR-3 81.8 µM | OVCAR-4 > 100 µM | OVCAR-8 33.5 µM | SF-268 > 100 µM | SNB-75 20.5 µM | SR 29.6 µM | SW-620 32.7 µM | TK-10 60.1 µM | U-251 41.4 µM

BrC1=CC=C2NC=CC3=CC=NC1C32 (configuration not stated)
inactive: A498 30.3 µM | ACHN 7.26 µM | EKVX 39.5 µM | HCT-116 6.03 µM | HL-60 4.08 µM | HOP-92 15.7 µM | IGROV-1 25.6 µM | NCI-H226 14.2 µM | OVCAR-3 22 µM | OVCAR-4 27.7 µM | OVCAR-8 16.4 µM | RXF 393 16 µM | SF-268 15.5 µM | SNB-75 18.3 µM | SR 4.57 µM | SW-620 8.95 µM | TK-10 34.1 µM | U-251 7.67 µM

Cc1cc(C)c2c(-c3ccccc3)cc(=O)[nH]c2c1
inactive: A498 > 100 µM | ACHN > 100 µM | EKVX > 100 µM | HCT-116 > 100 µM | HL-60 > 100 µM | IGROV-1 > 100 µM | MDA-N > 100 µM | NCI-H226 > 100 µM | OVCAR-3 > 100 µM | OVCAR-4 > 100 µM | OVCAR-8 > 100 µM | RXF 393 > 100 µM | SF-268 > 100 µM | SNB-75 > 100 µM | SW-620 > 100 µM | TK-10 > 100 µM | U-251 > 100 µM

CCSC1=N/C(=C\c2ccco2)C(Nc2ccc(C)cc2)=N1
inactive: A498 > 100 µM | ACHN > 100 µM | EKVX > 100 µM | HCT-116 > 100 µM | HOP-92 > 100 µM | IGROV-1 60.5 µM | MDA-N > 100 µM | NCI-H226 > 100 µM | OVCAR-3 > 100 µM | OVCAR-8 > 100 µM | SF-268 > 100 µM | SNB-75 > 100 µM | SR > 100 µM | SW-620 > 100 µM | TK-10 > 100 µM | U-251 > 100 µM
